Measured values as given in ChEMBL document CHEMBL1141457, “N-methyl-D-aspartate antagonists and neuropathic pain: the search for relief” (2007).

Columns and labels:
[1] = species: Homo sapiens; test: Reduction in post-surgical neuropathic pain intensity in cancer patient; format: functional; parameters: scale not given: the % may be the effect or the level left
[2] = species: Homo sapiens; test: Reduction in pain intensity in diabetic neuropathy patient; format: functional; parameters: scale not given: the % may be the effect or the level left

Compound | Activity [1] [%] | Activity [2] [%]
NC12CC3CC(CC(C3)C1)C2 [AMANTADINE] | 31 | 
COc1ccc2c(c1)[C@]13CCCC[C@@H]1[C@H](C2)N(C)CC3 [DEXTROMETHORPHAN] |  | 24
